{"source": "patent US20230128969A1", "about": "“POLYURETHANE FOAM COMPOSITIONS WITH ANTIMICROBIAL PROPERTIES” (SANITIZED AG, priority 2020, published 2023)", "key": {"[1]": {"system": "Aspergillus niger-ATCC 9642, Penicillium funiculosum-ATCC 11797, Chaetomium globosum-ATCC 6205, Trichoderma virens-ATCC 9645, Aureobasidium pullulans-ATCC …", "experiment": "ASTM G21 strengthened (fungal growth on specimen, 28 days)", "format": "cell-based, mold fungi (composite spore suspension)", "conditions": "for ASTM G21: 0.5 pbw (B) with 0.25 pbw (C) C8-C18-alkyldimethylbenzyl ammonium chloride; for ASTM G21 strengthened rating: rigid foam A4"}, "[2]": {"system": "Aspergillus niger-ATCC 6275, Penicillium funiculosum-ATCC 36839, Chaetomium globosum-ATCC 6205, Trichoderma virens ATCC 9645, Paecilomyces varioti-ATCC 18502", "experiment": "EN ISO 846 A test method (PUD coatings, 28 days)", "format": "cell-based, fungi (composite spore suspension)", "set-up": "key: 0: No fungal growth, excellent resistance; 1: fungi visible with the microscope, sufficient resistance; 2-5: fungi visible to the naked eye, insufficient resistance", "conditions": "polyurethane coating A5"}, "[3]": {"system": "Escherichia coli ATCC 11229", "experiment": "JIS L 1902 test method (memory foam, 18 hours)", "format": "cell-based", "conditions": "memory foam A2"}, "[4]": {"system": "Penicillium funiculosum-ATCC 36839", "experiment": "Agar diffusion test SAN BIO 12/94", "format": "cell-based", "conditions": "polyurethane coating A5"}, "[5]": {"system": "Escherichia coli ATCC 8739", "experiment": "JIS Z 2801 test method (PUD coatings, 24 hours)", "format": "cell-based", "conditions": "polyurethane coating A5"}, "[6]": {"conditions": "memory foam A1, 0.2 pbw (B) with 0.5 pbw (C) dimethyltetradecyl(3-(trimethoxysilyl)propyl)ammonium chloride, (E) Diglyme 0.8 pbw"}, "[7]": {"conditions": "memory foam A2, 0.5 pbw (B), 0 pbw (C)"}, "[8]": {"conditions": "memory foam A2, 0.125 pbw (C), 0 pbw (B)"}, "[9]": {"conditions": "memory foam A2, 0.25 pbw (C), 0 pbw (B)"}, "[10]": {"conditions": "0.5 pbw (C) with 0.25 pbw (B) tetrasodium EDTA salt"}, "[11]": {"conditions": "0.5 pbw (C) with 0.5 pbw (B) tetrasodium EDTA salt"}, "[12]": {"conditions": "memory foam A2, 0.5 pbw (C), 0 pbw (B)"}, "[13]": {"conditions": "memory foam A2, 1 pbw (C), 0 pbw (B)"}, "[14]": {"conditions": "memory foam A2, 2 pbw (C), 0 pbw (B)"}}, "note": "“And” between values parts separate entries of the source, which are not always exact repeats. Identical values can stand only once. Like-named read-outs stand apart in the source and are kept apart here."}
{"molecule": "O=C(O)CC(O)(CC(=O)O)C(=O)O", "note": "[Citric acid]", "values": [{"measurement": "G21 (ASTM G21 strengthened rating)", "setting": "[1]; [6]", "value": "4 (at least 60% of the surface is covered with mold fungi)"}]}
{"molecule": "O=C(O)CN(CCO)CCN(CC(=O)O)CC(=O)O", "note": "[N-(2-Hydroxyethyl)-ethylenediamine-N,N′,N′-triacetic acid]", "values": [{"measurement": "ASTM G21", "setting": "[1]; memory foam A2", "value": "2 (10 to 30% of the surface is covered with mold fungi)"}, {"measurement": "G21 (ASTM G21 strengthened rating)", "setting": "[1]; [7]", "value": "3 (30 to 60% of the surface is covered with mold fungi)"}]}
{"molecule": "O=C(O)CN(CC(=O)O)CC(=O)O", "note": "[Nitrilotriacetic acid]", "values": [{"measurement": "G21 (ASTM G21 strengthened rating)", "setting": "[1]; [6]", "value": "4 (at least 60% of the surface is covered with mold fungi)"}]}
{"molecule": "CCCCCCCCCCC(=O)O", "note": "[Undecanoic acid]", "values": [{"measurement": "G21 (ASTM G21 strengthened rating)", "setting": "[1]; memory foam A1, 0.5 pbw (B) with 0.5 pbw (C) dimethyltetradecyl(3-(trimethoxysilyl)propyl)ammonium chloride, (E) Arcol Polyol 1108 0.5 pbw", "value": "4 (at least 60% of the surface is covered with mold fungi)"}]}
{"molecule": "CCCCCCCCCC[N+](C)(C)CCCCCCCCCC.[Cl-]", "note": "[didecyldimethyl ammonium chloride]", "values": [{"measurement": "G21 (ASTM G21 strengthened rating)", "setting": "[1]", "value": 0}]}
{"molecule": "CCCCCCCCCCCCCCCCCC[N+](C)(C)CCC[Si](OC)(OC)OC.[Cl-]", "note": "[dimethyloctadecyl(3-(trimethoxysilyl)propyl)ammonium chloride]", "values": [{"measurement": "G21 (ASTM G21 strengthened rating)", "setting": "[1]; [8]", "value": "4 (at least 60% of the surface is covered with mold fungi)"}, {"measurement": "G21 (ASTM G21 strengthened rating)", "setting": "[1]; [9]", "value": "3 (30 to 60% of the surface is covered with mold fungi)"}]}
{"molecule": "CCCCCCCCCCCCCC[N+](C)(C)CCC[Si](OC)(OC)OC.[Cl-]", "note": "[dimethyltetradecyl(3-(trimethoxysilyl)propyl)ammonium chloride]", "values": [{"measurement": "EN ISO 846 A rating", "setting": "[2]; [10]", "value": 3}, {"measurement": "EN ISO 846 A rating", "setting": "[2]; [11]", "value": 1}, {"measurement": "EN ISO 846 A rating", "setting": "[2]; 0.5 pbw (C) with 1 pbw (B) tetrasodium EDTA salt", "value": 0}, {"measurement": "EN ISO 846 A rating", "setting": "[2]; 0.5 pbw (C), 0 pbw (B)", "value": 5}, {"measurement": "logarithmic reduction of bacterial growth (log R), JIS L 1902", "setting": "[3]; 1 pbw (C), 0 pbw (B)", "value": 2.7, "unit": "log R"}, {"measurement": "bacterial growth (in words)", "setting": "[3]; combination of (C) with (B) disodium EDTA dihydrate", "value": "absence of bacterial growth"}, {"measurement": "G21 (ASTM G21 strengthened rating)", "setting": "[1]; memory foam A1, 0.5 pbw (C), no (B), (E) Arcol Polyol 1108 1 pbw", "value": "4 (at least 60% of the surface is covered with mold fungi)"}, {"measurement": "G21 (ASTM G21 strengthened rating)", "setting": "[1]; memory foam A1, 0.5 pbw (C), no (B), (E) Diglyme 1 pbw", "value": "4 (at least 60% of the surface is covered with mold fungi)"}, {"measurement": "G21 (ASTM G21 strengthened rating)", "setting": "[1]; memory foam A1, 0.5 pbw (C), no (B), (E) Triacetin 1 pbw", "value": "4 (at least 60% of the surface is covered with mold fungi)"}, {"measurement": "G21 (ASTM G21 strengthened rating)", "setting": "[1]; memory foam A1, 0.5 pbw (C), no (B), no (E)", "value": "3 (30 to 60% of the surface is covered with mold fungi)"}, {"measurement": "G21 (ASTM G21 strengthened rating)", "setting": "[1]; [8]", "value": "4 (at least 60% of the surface is covered with mold fungi)"}, {"measurement": "G21 (ASTM G21 strengthened rating)", "setting": "[1]; [9]", "value": "3 (30 to 60% of the surface is covered with mold fungi)"}, {"measurement": "G21 (ASTM G21 strengthened rating)", "setting": "[1]; [12]", "value": 0}, {"measurement": "SAN BIO 12-94 fungal growth", "setting": "[4]; 0.5 pbw (C), 0 pbw (B)", "value": "Full (f) (insufficient protection, sample is covered with fungi)"}, {"measurement": "Bacterial Activity R, logarithmic reduction (log R activity), JIS Z 2801", "setting": "[5]; 0.125 pbw (C) with 0.25 pbw (B) tetrasodium EDTA salt", "value": 2.80, "unit": "log R"}, {"measurement": "Bacterial Activity R, logarithmic reduction (log R activity), JIS Z 2801", "setting": "[5]; 0.125 pbw (C) with 0.5 pbw (B) tetrasodium EDTA salt", "value": ">5.10", "unit": "log R"}, {"measurement": "Bacterial Activity R, logarithmic reduction (log R activity), JIS Z 2801", "setting": "[5]; 0.125 pbw (C), 0 pbw (B)", "value": 0.10, "unit": "log R"}, {"measurement": "Bacterial Activity R, logarithmic reduction (log R activity), JIS Z 2801", "setting": "[5]; [10]", "value": 2.90, "unit": "log R"}, {"measurement": "Bacterial Activity R, logarithmic reduction (log R activity), JIS Z 2801", "setting": "[5]; [11]", "value": ">5.10", "unit": "log R"}, {"measurement": "Bacterial Activity R, logarithmic reduction (log R activity), JIS Z 2801", "setting": "[5]; 0.5 pbw (C), 0 pbw (B)", "value": 0.50, "unit": "log R"}]}
{"molecule": "O.O.O=C([O-])CN(CCN(CC(=O)O)CC(=O)O)CC(=O)[O-].[Na+].[Na+]", "note": "[disodium EDTA dihydrate, Disodium EDTA dihydrate]", "values": [{"measurement": "logarithmic reduction of bacterial growth (log R), JIS L 1902", "setting": "[3]; 0.25 pbw (B), 0 pbw (C)", "value": 3.1, "unit": "log R"}, {"measurement": "G21 (ASTM G21 strengthened rating)", "setting": "[1]; [6]", "value": 0}, {"measurement": "antimicrobial efficiency / protection (in words)", "setting": "[1]; memory foam A1, (B) combined with (C) dimethyltetradecyl(3-(trimethoxysilyl)propyl)ammonium chloride, ASTM G21 strengthened", "value": "very good antimicrobial efficiency"}, {"measurement": "G21 (ASTM G21 strengthened rating)", "setting": "[1]; memory foam A2, 0.25 pbw (B), 0 pbw (C)", "value": "3 (30 to 60% of the surface is covered with mold fungi)"}, {"measurement": "ASTM G21", "setting": "[1]; memory foam A2", "value": 0}, {"measurement": "G21 (ASTM G21 strengthened rating)", "setting": "[1]; [7]", "value": "3 (30 to 60% of the surface is covered with mold fungi)"}, {"measurement": "G21 (ASTM G21 strengthened rating)", "setting": "[1]; memory foam A2, 1 pbw (B), 0 pbw (C)", "value": "3 (30 to 60% of the surface is covered with mold fungi)"}, {"measurement": "ASTM G21 strengthened rating", "setting": "[1]; 0.5 pbw (B), 0 pbw (C)", "value": "4 (at least 60% of the surface is covered with mold fungi)"}, {"measurement": "SAN BIO 12-94 fungal growth", "setting": "[4]; 0.25 pbw (B), 0 pbw (C)", "value": "Full (f) (insufficient protection, sample is covered with fungi)"}, {"measurement": "SAN BIO 12-94 fungal growth", "setting": "[4]; 0.5 pbw (B), 0 pbw (C)", "value": "Full (f) (insufficient protection, sample is covered with fungi)"}, {"measurement": "SAN BIO 12-94 fungal growth", "setting": "[4]; 1 pbw (B), 0 pbw (C)", "value": "Full (f) (insufficient protection, sample is covered with fungi)"}]}
{"molecule": "CCCCCCCCCCCCN(CCCN)CCCN", "note": "[laurylamine dipropylenediamine]", "values": [{"measurement": "G21 (ASTM G21 strengthened rating)", "setting": "[1]; [12]", "value": "4 (at least 60% of the surface is covered with mold fungi)"}, {"measurement": "G21 (ASTM G21 strengthened rating)", "setting": "[1]; [13]", "value": "4 (at least 60% of the surface is covered with mold fungi)"}]}
{"molecule": "CCCCCCCCCCCCCC[N+](C)(C)C.[Cl-]", "note": "[myristyltrimethylammonium chloride]", "values": [{"measurement": "G21 (ASTM G21 strengthened rating)", "setting": "[1]; [12]", "value": "2 (10 to 30% of the surface is covered with mold fungi)"}, {"measurement": "G21 (ASTM G21 strengthened rating)", "setting": "[1]; [13]", "value": 0}, {"measurement": "G21 (ASTM G21 strengthened rating)", "setting": "[1]; [14]", "value": 0}]}
{"molecule": "O=C([O-])CN(CCN(CC(=O)[O-])CC(=O)[O-])CC(=O)[O-].[Na+].[Na+].[Na+].[Na+]", "note": "[tetrasodium EDTA salt, EDTA, tetrasodium]", "values": [{"measurement": "EN ISO 846 A rating", "setting": "[2]; 0.25 pbw (B), 0 pbw (C)", "value": 5}, {"measurement": "EN ISO 846 A rating", "setting": "[2]; 0.5 pbw (B), 0 pbw (C)", "value": 5}, {"measurement": "EN ISO 846 A rating", "setting": "[2]; 1 pbw (B), 0 pbw (C)", "value": 5}, {"measurement": "G21 (ASTM G21 strengthened rating)", "setting": "[1]", "value": 0}, {"measurement": "antimicrobial efficiency / protection (in words)", "setting": "[1]", "value": "very good antimicrobial efficiency"}, {"measurement": "Bacterial Activity R, logarithmic reduction (log R activity), JIS Z 2801", "setting": "[5]; 0.25 pbw (B), 0 pbw (C)", "value": 0.90, "unit": "log R"}, {"measurement": "Bacterial Activity R, logarithmic reduction (log R activity), JIS Z 2801", "setting": "[5]; 0.5 pbw (B), 0 pbw (C)", "value": 3.20, "unit": "log R"}]}
{"molecule": "C8-C18-alkyldimethylbenzyl ammonium chloride", "values": [{"measurement": "G21 (ASTM G21 strengthened rating)", "setting": "[1]; [9]", "value": "3 (30 to 60% of the surface is covered with mold fungi) and 2 (10 to 30% of the surface is covered with mold fungi)"}, {"measurement": "G21 (ASTM G21 strengthened rating)", "setting": "[1]; [12]", "value": "4 (at least 60% of the surface is covered with mold fungi)"}, {"measurement": "G21 (ASTM G21 strengthened rating)", "setting": "[1]; [13]", "value": "4 (at least 60% of the surface is covered with mold fungi)"}, {"measurement": "G21 (ASTM G21 strengthened rating)", "setting": "[1]; [14]", "value": 0}, {"measurement": "ASTM G21 strengthened rating", "setting": "[1]; 0.25 pbw (C), 0 pbw (B)", "value": "3 (30 to 60% of the surface is covered with mold fungi)"}]}
